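Assay format: 96-well plates, 48-hour exposure. GI50: concentration for 50% inhibition of growth.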 Calls of active or inactive are those of the source. No stated cut-off is given here; in the data, active = GI50 up to about 1.1 µM and inactive = higher.
What was measured:
Assay in all cases: growth of human tumour cells (NCI), 48 h
OVCAR-8 = system: OVCAR-8
IGROV-1 = system: IGROV-1
T47D = system: T47D
SR = system: SR
COLO 205 = system: COLO 205
HCT-116 = system: HCT-116
SK-MEL-2 = system: SK-MEL-2
A549 = system: A549
MDA-MB-231 = system: MDA-MB-231
U-251 = system: U-251
MDA-N = system: MDA-N
SN12C = system: SN12C
M14 = system: M14
HT-29 = system: HT-29
A498 = system: A498
UACC-257 = system: UACC-257
SF-539 = system: SF-539
NCI-H23 = system: NCI-H23
SNB-19 = system: SNB-19

Measured: GI50

COc1ccc2c(c1)CC1(O)COc3cc(OC)ccc3C1O2 (stereo not drawn)
inactive: OVCAR-8 > 100 µM | IGROV-1 > 100 µM | T47D 85.7 µM | SR > 100 µM | COLO 205 > 100 µM | HCT-116 > 100 µM | SK-MEL-2 > 100 µM | A549 > 100 µM | MDA-MB-231 > 100 µM | U-251 91.6 µM | MDA-N > 100 µM | SN12C > 100 µM | M14 > 100 µM | HT-29 > 100 µM | A498 > 100 µM | UACC-257 61.8 µM | SF-539 > 100 µM | NCI-H23 > 100 µM

CCn1c2nc(=O)n(CCCCCCCCSC(c3ccccc3)(c3ccccc3)c3ccccc3)c(=O)c-2nc2ccccc21
inactive: OVCAR-8 43.6 µM | IGROV-1 31.3 µM | T47D 8.05 µM | SR 2.61 µM | HCT-116 3.7 µM | SK-MEL-2 8.41 µM | MDA-MB-231 45.4 µM | U-251 19 µM | MDA-N 7.14 µM | M14 8.61 µM | HT-29 2.74 µM | A498 37.8 µM | UACC-257 3.73 µM | SF-539 64.3 µM | NCI-H23 8.3 µM

COc1cc(C(CN)N(C)C)cc(OC)c1OC (stereo not drawn)
inactive: OVCAR-8 > 100 µM | IGROV-1 > 100 µM | T47D > 100 µM | SR 8.49 µM | COLO 205 77.8 µM | SNB-19 > 100 µM | HCT-116 > 100 µM | A549 > 100 µM | MDA-MB-231 > 100 µM | U-251 > 100 µM | MDA-N > 100 µM | SN12C 49.2 µM | M14 > 100 µM | HT-29 > 100 µM | A498 > 100 µM | UACC-257 > 100 µM | SF-539 > 100 µM | NCI-H23 > 100 µM

CN(/N=C\c1ccc2ccccc2c1)C1=NCCCCN1
inactive: OVCAR-8 29.8 µM | IGROV-1 26.5 µM | T47D 31.6 µM | SR 21.2 µM | COLO 205 16.1 µM | HCT-116 24.9 µM | SK-MEL-2 23.8 µM | A549 18.8 µM | MDA-MB-231 21.9 µM | U-251 18 µM | MDA-N 16.3 µM | SN12C 18.5 µM | HT-29 16.1 µM | A498 21 µM | UACC-257 16.4 µM | SF-539 21.7 µM | NCI-H23 29.8 µM

O=C(CC(C(=O)c1cccs1)c1ccsc1)c1ccccc1 (stereo not drawn)
inactive: OVCAR-8 > 100 µM | IGROV-1 > 100 µM | T47D 24.7 µM | SR 66.1 µM | COLO 205 > 100 µM | HCT-116 38.3 µM | A549 21.5 µM | MDA-MB-231 17.5 µM | U-251 > 100 µM | MDA-N 37.5 µM | SN12C > 100 µM | M14 34.9 µM | HT-29 > 100 µM | A498 51.8 µM | UACC-257 > 100 µM | SF-539 > 100 µM | NCI-H23 26.4 µM

Cc1ccc(/N=c2/oc3c(ccc4ccccc43)nc2Nc2ccc(C)cc2)cc1
inactive: OVCAR-8 > 100 µM | IGROV-1 > 100 µM | T47D > 100 µM | SR 69.8 µM | COLO 205 > 100 µM | SNB-19 > 100 µM | HCT-116 > 100 µM | SK-MEL-2 > 100 µM | A549 > 100 µM | MDA-MB-231 > 100 µM | U-251 > 100 µM | MDA-N > 100 µM | SN12C > 100 µM | HT-29 > 100 µM | A498 > 100 µM | UACC-257 > 100 µM | SF-539 > 100 µM | NCI-H23 > 100 µM

COc1ccc(CCNC(=O)c2ccccc2C2c3ccc(OCc4ccccc4)cc3Oc3cc(OCc4ccccc4)ccc32)cc1OC
inactive: OVCAR-8 > 100 µM | IGROV-1 > 100 µM | T47D > 100 µM | SR > 100 µM | COLO 205 > 100 µM | SNB-19 > 100 µM | HCT-116 > 100 µM | SK-MEL-2 > 100 µM | A549 > 100 µM | MDA-MB-231 > 100 µM | U-251 > 100 µM | MDA-N > 100 µM | SN12C > 100 µM | M14 > 100 µM | HT-29 > 100 µM | A498 > 100 µM | UACC-257 94.6 µM | NCI-H23 > 100 µM

CCOC(=O)c1c(SC(=O)c2ccc(C(C)(C)C)cc2)n(-c2ccccc2)c(=S)n(-c2ccccc2)c1=O
inactive: OVCAR-8 > 100 µM | IGROV-1 > 100 µM | T47D > 100 µM | SR > 100 µM | COLO 205 > 100 µM | SNB-19 > 100 µM | HCT-116 > 100 µM | A549 > 100 µM | MDA-MB-231 > 100 µM | U-251 > 100 µM | MDA-N > 100 µM | SN12C > 100 µM | M14 > 100 µM | HT-29 > 100 µM | A498 > 100 µM | UACC-257 > 100 µM | SF-539 > 100 µM | NCI-H23 > 100 µM

Cc1ccc(S(=O)(=O)NC2C(=O)c3ccccc3C(=O)C2n2cnc3ccccc32)cc1 (stereo not drawn)
inactive: OVCAR-8 29.4 µM | IGROV-1 16.8 µM | T47D 25.2 µM | SR 34.4 µM | COLO 205 20 µM | SNB-19 27.4 µM | HCT-116 27.4 µM | SK-MEL-2 14.7 µM | A549 33.5 µM | MDA-MB-231 17.9 µM | U-251 26.1 µM | MDA-N 19.4 µM | SN12C 32.7 µM | M14 25.3 µM | HT-29 28.1 µM | UACC-257 28.9 µM | SF-539 24.7 µM | NCI-H23 23.9 µM

CC(=O)Oc1ccc(OC(Oc2ccccc2)c2ccccc2)cc1 (stereo not drawn)
inactive: OVCAR-8 37.9 µM | IGROV-1 32.6 µM | T47D 39.9 µM | SR 14.9 µM | COLO 205 40.7 µM | SNB-19 27.3 µM | HCT-116 24.9 µM | A549 37.5 µM | MDA-MB-231 18.9 µM | U-251 17.5 µM | MDA-N 21.3 µM | SN12C 15 µM | M14 17.5 µM | HT-29 28.1 µM | A498 23.7 µM | UACC-257 32.2 µM | SF-539 23.1 µM | NCI-H23 17.7 µM

Clc1cc2nnn(C3CCCO3)c2cc1Cl (stereo not drawn)
inactive: OVCAR-8 > 100 µM | IGROV-1 > 100 µM | T47D > 100 µM | SR 45.8 µM | COLO 205 > 100 µM | HCT-116 > 100 µM | SK-MEL-2 > 100 µM | A549 > 100 µM | MDA-MB-231 > 100 µM | U-251 > 100 µM | MDA-N > 100 µM | SN12C > 100 µM | M14 > 100 µM | HT-29 > 100 µM | A498 98.4 µM | UACC-257 > 100 µM | SF-539 > 100 µM | NCI-H23 60.1 µM

Reference: ChEMBL document CHEMBL1201862, “PubChem BioAssay data set” (2004)
